Test results reported in the NIST ThermoML archive (doi:10.1007/s10765-015-1981-5).

Assay: xn = mol fraction of the nth substance listed
Conditions: Gas, Loschmidt cell combine with holographic interferometry

Row | SMILES | binary diffusion coefficient (293.15 K, 100 kPa, x2 = 0.5) | binary diffusion coefficient (293.15 K, 200 kPa, x2 = 0.5) | binary diffusion coefficient (293.15 K, 500 kPa, x2 = 0.5) | binary diffusion coefficient (293.15 K, 1000 kPa, x2 = 0.5) | binary diffusion coefficient (313.15 K, 100 kPa, x2 = 0.5) | binary diffusion coefficient (313.15 K, 200 kPa, x2 = 0.5) | binary diffusion coefficient (313.15 K, 500 kPa, x2 = 0.5) | binary diffusion coefficient (313.15 K, 1000 kPa, x2 = 0.5) | binary diffusion coefficient (333.15 K, 200 kPa, x2 = 0.5) | binary diffusion coefficient (333.15 K, 500 kPa, x2 = 0.5) | binary diffusion coefficient (333.15 K, 1000 kPa, x2 = 0.5) | binary diffusion coefficient (293.15 K, 100 kPa, x1 = 0.5) | binary diffusion coefficient (293.15 K, 200 kPa, x1 = 0.5) | binary diffusion coefficient (293.15 K, 500 kPa, x1 = 0.5) | binary diffusion coefficient (313.15 K, 200 kPa, x1 = 0.5) | binary diffusion coefficient (313.15 K, 500 kPa, x1 = 0.5) | further results
1 | [Xe] [xenon] + [Ar] | 3.12e-05 m2/s | 1.56e-05 m2/s | 6.29e-06 m2/s | 3.12e-06 m2/s | 3.5e-05 m2/s | 1.75e-05 m2/s | 7.02e-06 m2/s | 3.48e-06 m2/s | 1.94e-05 m2/s | 7.76e-06 m2/s | 3.88e-06 m2/s | – | – | – | – | – | binary diffusion coefficient (333.15 K, 100 kPa, x2 = 0.5): 3.88e-05 m2/s
2 | [He] [helium] + CCC | 3.9e-05 m2/s | 1.95e-05 m2/s | – | – | 4.36e-05 m2/s | 2.18e-05 m2/s | – | – | 2.4e-05 m2/s | – | – | – | – | – | – | – | –
3 | [N-]=[N+]=O [nitrous oxide] + N#N | 1.53e-05 m2/s | 7.9e-06 m2/s | 3.14e-06 m2/s | 1.56e-06 m2/s | 1.76e-05 m2/s | 8.98e-06 m2/s | 3.55e-06 m2/s | 1.77e-06 m2/s | – | 4.28e-06 m2/s | 1.98e-06 m2/s | – | – | – | – | – | binary diffusion coefficient (353.15 K, 1000 kPa, x2 = 0.5): 2.24e-06 m2/s
4 | [Kr] [krypton] + [He] | – | – | – | – | – | – | – | – | – | – | – | 6.19e-05 m2/s | 3.12e-05 m2/s | 1.25e-05 m2/s | 3.48e-05 m2/s | 1.34e-05 m2/s | binary diffusion coefficient (293.15 K, 1000 kPa, x1 = 0.5): 6.18e-06 m2/s; binary diffusion coefficient (313.15 K, 100 kPa, x1 = 0.5): 7.04e-05 m2/s; binary diffusion coefficient (313.15 K, 1000 kPa, x1 = 0.5): 6.94e-06 m2/s; binary diffusion coefficient (333.15 K, 200 kPa, x1 = 0.5): 3.84e-05 m2/s; binary diffusion coefficient (333.15 K, 500 kPa, x1 = 0.5): 1.55e-05 m2/s; binary diffusion coefficient (333.15 K, 1000 kPa, x1 = 0.5): 7.7e-06 m2/s; binary diffusion coefficient (353.15 K, 200 kPa, x1 = 0.5): 4.25e-05 m2/s; binary diffusion coefficient (353.15 K, 500 kPa, x1 = 0.5): 1.71e-05 m2/s; binary diffusion coefficient (353.15 K, 1000 kPa, x1 = 0.5): 8.54e-06 m2/s
5 | [He] [helium] + N | – | – | – | – | – | – | – | – | – | – | – | 7.36e-05 m2/s | 3.7e-05 m2/s | 1.46e-05 m2/s | 4.1e-05 m2/s | 1.65e-05 m2/s | binary diffusion coefficient (293.15 K, 800 kPa, x1 = 0.5): 8.96e-06 m2/s; binary diffusion coefficient (313.15 K, 800 kPa, x1 = 0.5): 1.02e-05 m2/s; binary diffusion coefficient (333.15 K, 800 kPa, x1 = 0.5): 1.13e-05 m2/s; binary diffusion coefficient (353.15 K, 800 kPa, x1 = 0.5): 1.26e-05 m2/s
